Data on 32 compounds can be found in patent publication US8846698B2, “Pyrrolo[2,3-d]pyrimidine tropomysin-related kinase inhibitors” (Pfizer Limited, priority 2011, dated 2014).

This test deals with TRKA (Homo sapiens (Human), UniProt P04629). Kind of test: Isolated TRK enzyme assay (HTRF KinEASE-TK), TRKA. The following applies: read-out: Trka enzyme (IC50). Type of test: biochemical. A general note: TR-FRET usually uses a lanthanide donor and a delayed reading to cut background.
Sequence of TRKA (P04629 441-796): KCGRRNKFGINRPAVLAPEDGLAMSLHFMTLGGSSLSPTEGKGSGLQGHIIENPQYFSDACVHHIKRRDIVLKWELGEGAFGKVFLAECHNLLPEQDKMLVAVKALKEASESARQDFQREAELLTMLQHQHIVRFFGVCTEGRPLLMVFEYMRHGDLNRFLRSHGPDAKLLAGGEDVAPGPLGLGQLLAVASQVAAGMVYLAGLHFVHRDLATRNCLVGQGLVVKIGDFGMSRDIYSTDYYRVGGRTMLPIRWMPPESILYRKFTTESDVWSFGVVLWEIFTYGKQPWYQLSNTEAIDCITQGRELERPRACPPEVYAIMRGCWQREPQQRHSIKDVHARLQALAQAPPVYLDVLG
By IC50 is commonly meant the point on the concentration scale where inhibition reaches its midpoint. Turning to `CC(C)n1cc(C(=O)c2cncc(NC(=O)c3cnc4occc4c3)c2)c2cncnc21` [Example 491, Furo[2,3-b]pyridine-5-carboxylic acid [5-(7-isopropyl-7H-pyrrolo[2,3-d]pyrimidine-5-carbonyl)-pyridin-3-yl]-amide], the IC50 was determined as 1410 nM.

As to `CC(C)c1nnc2ccc(C(=O)Nc3cncc(C(=O)c4cn(C(C)C)c5ncncc45)c3)cn12` [Example 492, 3-Isopropyl-1,2,4-triazolo[4,3-a]pyridine-6-carboxylic acid [5-(7-isopropyl-7H-pyrrolo[2,3-d]pyrimidine-5-carbonyl)-pyridin-3-yl]-amide], the IC50 is 1690 nM. For the compound `CC(C)n1cc(C(=O)c2cncc(NC(=O)c3cocn3)c2)c2cncnc21` [Example 493, Oxazole-4-carboxylic acid [5-(7-isopropyl-7H-pyrrolo[2,3-d]pyrimidine-5-carbonyl)-pyridin-3-yl]-amide], the IC50 was 848 nM. As to `CC(C)n1cc(C(=O)c2cncc(NC(=O)c3ncccc3Cl)c2)c2cncnc21` [Example 494, 3-Chloro-pyridine-2-carboxylic acid[5-(7-isopropyl-7H-pyrrolo[2,3-d]pyrimidine-5-carbonyl)-pyridin-3-yl]-amide], the IC50 worked out at 2570 nM. `CC(C)n1cc(C(=O)c2cncc(NC(=O)c3cnc4nccn4c3)c2)c2cncnc21` [Example 495, Imidazo[1,2-a]pyrimidine-6-carboxylic acid [5-(7-isopropyl-7H-pyrrolo[2,3-d]pyrimidine-5-carbonyl)-pyridin-3-yl]-amide]: the IC50 amounted to 9800 nM.

`CC(C)n1cc(C(=O)c2cncc(NC(=O)c3cc(C4CC4)on3)c2)c2cncnc21` [Example 496, 5-Cyclopropyl-isoxazole-3-carboxylic acid [5-(7-isopropyl-7H-pyrrolo[2,3-d]pyrimidine-5-carbonyl)-pyridin-3-yl]-amide]: the IC50 came to 199 nM. `CC(C)n1cc(C(=O)c2cncc(NC(=O)c3cc(C4CC4)n[nH]3)c2)c2cncnc21` [Example 497, 5-Cyclopropyl-2H-pyrazole-3-carboxylic acid [5-(7-isopropyl-7H-pyrrolo[2,3-d]pyrimidine-5-carbonyl)-pyridin-3-yl]-amide]: the IC50 came out at 43.5 nM.

In the case of `Cc1cc2nnc(C(=O)Nc3cncc(C(=O)c4cn(C(C)C)c5ncncc45)c3)c(C)n2n1` [Example 498], the IC50 was 2340 nM.

As to `Cc1ccncc1C(=O)Nc1cncc(C(=O)c2cn(C(C)C)c3ncncc23)c1` [Example 499, N-[5-(7-Isopropyl-7H-pyrrolo[2,3-d]pyrimidine-5-carbonyl)-pyridin-3-yl]-4-methyl-nicotinamide], the IC50 turned out to be 9800 nM. On to `CC(C)n1cc(C(=O)c2cncc(NC(=O)c3cn(C4CCC4)cn3)c2)c2cncnc21` [Example 500, 1-Cyclobutyl-1H-imidazole-4-carboxylic acid [5-(7-isopropyl-7H-pyrrolo[2,3-d]pyrimidine-5-carbonyl)-pyridin-3-yl]-amide], for which the IC50 turned out to be 25.8 nM.

Consider `CC(C)n1cc(C(=O)c2cncc(NC(=O)c3cc4ccccn4n3)c2)c2cncnc21` [Example 501, Pyrazolo[1,5-a]pyridine-2-carboxylic acid [5-(7-isopropyl-7H-pyrrolo[2,3-d]pyrimidine-5-carbonyl)-pyridin-3-yl]-amide], for which the IC50 came to 201 nM. Take `CC(C)n1cc(C(=O)c2cncc(NC(=O)c3ccc4nnnn4c3)c2)c2cncnc21` [Example 502, Tetrazolo[1,5-a]pyridine-6-carboxylic acid [5-(7-isopropyl-7H-pyrrolo[2,3-d]pyrimidine-5-carbonyl)-pyridin-3-yl]-amide]: the IC50 was found to be 6280 nM. With `CC(C)n1cc(C(=O)c2cncc(NC(=O)c3nnc4n3CCCC4)c2)c2cncnc21` [Example 503, 5,6,7,8-Tetrahydro-1,2,4-triazolo[4,3-a]pyridine-3-carboxylic acid [5-(7-isopropyl-7H-pyrrolo[2,3-d]pyrimidine-5-carbonyl)-pyridin-3-yl]-amide] the figure was 963 nM; with `Cc1nc(C(=O)Nc2cncc(C(=O)c3cn(C(C)C)c4ncncc34)c2)c(C(F)(F)F)o1` [Example 504, 2-Methyl-5-trifluoromethyl-oxazole-4-carboxylic acid [5-(7-isopropyl-7H-pyrrolo[2,3-d]pyrimidine-5-carbonyl)-pyridin-3-yl]-amide], 1020 nM. With `CC(C)n1cc(C(=O)c2cncc(NC(=O)c3cnc4cc[nH]c4c3)c2)c2cncnc21` [Example 505, 1H-Pyrrolo[3,2-b]pyridine-6-carboxylic acid [5-(7-isopropyl-7H-pyrrolo[2,3-d]pyrimidine-5-carbonyl)-pyridin-3-yl]-amide] the figure was 1630 nM. Then `CC(C)n1cc(C(=O)c2cncc(NC(=O)c3ccc4cnnc-4[nH]3)c2)c2cncnc21` [Example 506, Pyrazolo[3,4-b]pyridine-6-carboxylic acid [5-(7-isopropyl-7H-pyrrolo[2,3-d]pyrimidine-5-carbonyl)-pyridin-3-yl]-amide], with 67 nM; and `CC(C)n1cc(C(=O)c2cncc(NC(=O)c3[nH]nc4ccccc34)c2)c2cncnc21` [Example 507, 2H-Indazole-3-carboxylic acid [5-(7-isopropyl-7H-pyrrolo[2,3-d]pyrimidine-5-carbonyl)-pyridin-3-yl]-amide], with 5.45 nM; and `Cc1noc2ncc(C(=O)Nc3cncc(C(=O)c4cn(C(C)C)c5ncncc45)c3)cc12` [Example 508, 3-Methyl-isoxazolo[5,4-b]pyridine-5-carboxylic acid [5-(7-isopropyl-7H-pyrrolo[2,3-d]pyrimidine-5-carbonyl)-pyridin-3-yl]-amide], with 1630 nM. Turning to `CC(C)n1cc(C(=O)c2cncc(NC(=O)c3ccnnc3)c2)c2cncnc21` [Example 509, Pyridazine-4-carboxylic acid [5-(7-isopropyl-7H-pyrrolo[2,3-d]pyrimidine-5-carbonyl)-pyridin-3-yl]-amide], the IC50 came out at 9800 nM. Then `CC(C)n1cc(C(=O)c2cncc(NC(=O)c3cc4c(cn3)OCCO4)c2)c2cncnc21` [Example 510, 2,3-Dihydro-1,4-dioxino[2,3-c]pyridine-7-carboxylic acid [5-(7-isopropyl-7H-pyrrolo[2,3-d]pyrimidine-5-carbonyl)-pyridin-3-yl]-amide], with 249 nM; and `CC(C)n1cc(C(=O)c2cncc(NC(=O)c3n[nH]c4ncccc34)c2)c2cncnc21` [Example 511, 1H-Pyrazolo[3,4-b]pyridine-3-carboxylic acid [5-(7-isopropyl-7H-pyrrolo[2,3-d]pyrimidine-5-carbonyl)-pyridin-3-yl]-amide], with 144 nM. Then `CC(C)n1cc(C(=O)c2cncc(NC(=O)c3n[nH]c4ccc(F)cc34)c2)c2cncnc21` [Example 512, 5-Fluoro-1H-indazole-3-carboxylic acid [5-(7-isopropyl-7H-pyrrolo[2,3-d]pyrimidine-5-carbonyl)-pyridin-3-yl]-amide], with 12.6 nM; and `Cc1cc(C(=O)Nc2cncc(C(=O)c3cn(C(C)C)c4ncncc34)c2)n(C)n1` [Example 513, 2,5-Dimethyl-2H-pyrazole-3-carboxylic acid [5-(7-isopropyl-7H-pyrrolo[2,3-d]pyrimidine-5-carbonyl)-pyridin-3-yl]-amide], with 1890 nM; and `CC(C)n1cc(C(=O)c2cncc(NC(=O)c3ccnc4ncsc34)c2)c2cncnc21` [Example 514, Thiazolo[4,5-b]pyridine-7-carboxylic acid [5-(7-isopropyl-7H-pyrrolo[2,3-d]pyrimidine-5-carbonyl)-pyridin-3-yl]-amide], with 9800 nM. Turning to `CC(C)n1cc(C(=O)c2cncc(NC(=O)c3cn4nc(Cl)ccc4n3)c2)c2cncnc21` [Example 515, 6-Chloro-imidazo[1,2-b]pyridazine-2-carboxylic acid [5-(7-isopropyl-7H-pyrrolo[2,3-d]pyrimidine-5-carbonyl)-pyridin-3-yl]-amide], the IC50 was found to be 1140 nM. `CC(C)n1cc(C(=O)c2cncc(NC(=O)CN3CCc4cccnc4C3)c2)c2cncnc21` [Example 517, 2-(5,8-Dihydro-6H-[1,7]naphthyridin-7-yl)-N-[5-(7-isopropyl-7H-pyrrolo[2,3-d]pyrimidine-5-carbonyl)-pyridin-3-yl]-acetamide]: the IC50 stood at 4390 nM.

As to `CC(C)n1cc(C(=O)c2cncc(NC(=O)C(O)c3ccccc3)c2)c2cncnc21` (centres unmarked) [Example 518, 2-Hydroxy-N-[5-(7-isopropyl-7H-pyrrolo[2,3-d]pyrimidine-5-carbonyl)-pyridin-3-yl]-2-phenyl-acetamide], the IC50 worked out at 7.3 nM.

For the compound `CCOc1ncc(C(=O)c2cn(C(C)C)c3ncncc23)cc1NC(=O)Cn1nc(C(F)(F)F)cc1C` [Example 519, N-[2-Ethoxy-5-(7-isopropyl-7H-pyrrolo[2,3-d]pyrimidine-5-carbonyl)-pyridin-3-yl]-2-(5-methyl-3-trifluoromethyl-pyrazol-1-yl)-acetamide], the IC50 stood at 47.9 nM.

For `CC(C)(C)n1cc(C(=O)c2cncc(NC(=O)Cc3ccc(C#N)cc3)c2)c2cnc(N)nc21` [Example 520, N-[5-(2-Amino-7-tert-butyl-7H-pyrrolo[2,3-d]pyrimidine-5-carbonyl)-pyridin-3-yl]-2-(4-cyano-phenyl)-acetamide], the IC50 turned out to be 4.57 nM. For the compound `CC(C)n1cc(C(=O)c2cncc(NC(=O)C(CO)c3ccc(Cl)cc3)c2)c2cncnc21` (centres unmarked) [Example 521, 2-(4-Chloro-phenyl)-3-hydroxy-N-[5-(7-isopropyl-7H-pyrrolo[2,3-d]pyrimidine-5-carbonyl)-pyridin-3-yl]-propionamide], the IC50 came out at 92.7 nM. With `N#Cc1ccc(CC(=O)Nc2cncc(C(=O)c3cn(C4(CO)CC4)c4ncncc34)c2)cc1` [Example 522, 2-(4-Cyano-phenyl)-N-{5-[7-(1-hydroxymethyl-cyclopropyl)-7H-pyrrolo[2,3-d]pyrimidine-5-carbonyl]-pyridin-3-yl}-acetamide] the figure was 43.7 nM; with `O=C(Cc1ccc(Cl)cn1)Nc1cncc(C(=O)c2cn(C3(CO)CC3)c3ncncc23)c1` [Example 523, 2-(5-Chloro-pyridin-2-yl)-N-{5-[7-(1-hydroxymethyl-cyclopropyl)-7H-pyrrolo[2,3-d]pyrimidine-5-carbonyl]-pyridin-3-yl}-acetamide], 11.4 nM.
